Assay results reported in paper PMC5218480 (PLoS ONE, 2017).

Tested on: MV-4-11 cells
Experiment: Gene expression microarray analysis (Affymetrix PrimeView) and GSEA
Format: cell-based, human
Set-up: RFU PODN (11730768_x_at) / Fold change /veh PODN (11730768_x_at) / RFU LINC00158 (11744669_a_at) / Fold change /veh LINC00158 (11744669_a_at) / RFU DUSP10 (11751237_a_at) / Fold change /veh DUSP10 (11751237_a_at) / RFU ID3 (11757404_x_at) / Fold change /veh ID3 (11757404_x_at) / RFU PLEKHG5 (11737974_s_at) / Fold change /veh PLEKHG5 (11737974_s_at) / RFU LRRC4B (11730491_at) / Fold change /veh LRRC4B (11730491_at) / RFU GIMAP4 (11747438_a_at) / Fold change /veh GIMAP4 (11747438_a_at) / RFU KRT8 (11758183_x_at) / Fold change /veh KRT8 (11758183_x_at) / RFU CNN1 (11734310_a_at) / Fold change /veh CNN1 (11734310_a_at) / RFU VPS37D (11726825_at) / Fold change /veh VPS37D (11726825_at) / RFU C10orf10 (11716522_x_at) / Fold change /veh C10orf10 (11716522_x_at) / RFU KIR2DL2 /// KIR2DL4 /// KIR2DL5A /// KIR2DL5B /// KIR2DS1 /// KIR2DS2 /// KIR2DS3 /// KIR2DS4 /// KIR3DL3 /// KIR3DL3 /// KIR3DS1 (11738374_at) / Fold change /veh KIR2DL2 /// KIR2DL4 /// KIR2DL5A /// KIR2DL5B /// KIR2DS1 /// KIR2DS2 /// KIR2DS3 /// KIR2DS4 /// KIR3DL3 /// KIR3DL3 /// KIR3DS1 (11738374_at) / RFU C1QL1 (11718748_at) / Fold change /veh C1QL1 (11718748_at) / RFU TMPRSS4 (11747572_a_at) / Fold change /veh TMPRSS4 (11747572_a_at) / RFU HAMP (11756126_x_at) / Fold change /veh HAMP (11756126_x_at) / RFU RNFT2 (11725882_a_at) / Fold change /veh RNFT2 (11725882_a_at) / RFU NR4A2 (11747474_a_at) / Fold change /veh NR4A2 (11747474_a_at) / RFU ABCC12 (11746883_a_at) / Fold change /veh ABCC12 (11746883_a_at) / RFU TMEM136 (11760407_x_at) / Fold change /veh TMEM136 (11760407_x_at) / RFU CLDN22 /// WWC2 (11732394_at) / Fold change /veh CLDN22 /// WWC2 (11732394_at) / RFU HLA-DPB1 (11760878_x_at) / Fold change /veh HLA-DPB1 (11760878_x_at) / RFU SPINT1 (11716480_a_at) / Fold change /veh SPINT1 (11716480_a_at) / RFU GAP43 (11754022_s_at) / Fold change /veh GAP43 (11754022_s_at) / RFU A4GNT (11735810_at) / Fold change /veh A4GNT (11735810_at) / RFU PRB3 (11715151_x_at) / Fold change /veh PRB3 (11715151_x_at) / RFU TUBB4B (11761932_at) / Fold change /veh TUBB4B (11761932_at) / RFU CAPN14 (11732068_a_at) / Fold change /veh CAPN14 (11732068_a_at) / RFU TMCC2 (11721928_a_at) / Fold change /veh TMCC2 (11721928_a_at) / RFU IRGQ (11745062_a_at) / Fold change /veh IRGQ (11745062_a_at) / RFU FAM174B (11720279_a_at) / Fold change /veh FAM174B (11720279_a_at) / RFU TMPRSS4 (11748680_a_at) / Fold change /veh TMPRSS4 (11748680_a_at) / RFU FAM212B (11763350_a_at) / Fold change /veh FAM212B (11763350_a_at) / RFU PLEKHG5 (11743358_a_at) / Fold change /veh PLEKHG5 (11743358_a_at) / RFU ZSCAN30 (11745921_a_at) / Fold change /veh ZSCAN30 (11745921_a_at) / RFU CMKLR1 (11741424_a_at) / Fold change /veh CMKLR1 (11741424_a_at) / RFU LOC101060620 /// MAPK8IP1 (11723275_at) / Fold change /veh LOC101060620 /// MAPK8IP1 (11723275_at) / RFU SPTSSB (11747773_x_at) / Fold change /veh SPTSSB (11747773_x_at) / RFU PRSS12 (11739890_at) / Fold change /veh PRSS12 (11739890_at) / RFU BIN1 (11741810_x_at) / Fold change /veh BIN1 (11741810_x_at) / RFU WNT11 (11732464_a_at) / Fold change /veh WNT11 (11732464_a_at) / RFU C10orf10 (11716521_a_at) / Fold change /veh C10orf10 (11716521_a_at) / RFU C5orf56 (11738089_at) / Fold change /veh C5orf56 (11738089_at) / RFU CYB561 (11721691_x_at) / Fold change /veh CYB561 (11721691_x_at) / RFU ANKRD19P (11752326_a_at) / Fold change /veh ANKRD19P (11752326_a_at) / RFU OR2T12 /// OR2T33 /// OR2T8 (11738714_s_at) / Fold change /veh OR2T12 /// OR2T33 /// OR2T8 (11738714_s_at) / RFU VCAN (11748164_a_at) / Fold change /veh VCAN (11748164_a_at) / RFU JSRP1 (11732532_at) / Fold change /veh JSRP1 (11732532_at) / RFU KRTAP10-11 (11738290_x_at) / Fold change /veh KRTAP10-11 (11738290_x_at) / RFU MYO3A (11730013_a_at) / Fold change /veh MYO3A (11730013_a_at) / RFU EBF3 (11725865_a_at) / Fold change /veh EBF3 (11725865_a_at) / RFU CAMK2N1 (11719241_x_at) / Fold change /veh CAMK2N1 (11719241_x_at) / RFU C5orf56 (11738088_a_at) / Fold change /veh C5orf56 (11738088_a_at) / RFU OLFML3 (11715873_a_at) / Fold change /veh OLFML3 (11715873_a_at) / RFU LOC100653217 /// NTM (11731650_a_at) / Fold change /veh LOC100653217 /// NTM (11731650_a_at) / RFU MAPK11 (11762145_a_at) / Fold change /veh MAPK11 (11762145_a_at) / RFU FIZ1 (11724087_x_at) / Fold change /veh FIZ1 (11724087_x_at) / RFU OASL (11726364_x_at) / Fold change /veh OASL (11726364_x_at) / RFU SOX15 (11748057_x_at) / Fold change /veh SOX15 (11748057_x_at) / RFU CD79A (11719716_a_at) / Fold change /veh CD79A (11719716_a_at) / RFU HIST1H1D (11736915_at) / Fold change /veh HIST1H1D (11736915_at) / RFU CASKIN2 (11723855_a_at) / Fold change /veh CASKIN2 (11723855_a_at) / RFU LOC730098 (11760151_x_at) / Fold change /veh LOC730098 (11760151_x_at) / RFU OR4N2 (11742367_at) / Fold change /veh OR4N2 (11742367_at) / RFU PRRT2 (11749266_a_at) / Fold change /veh PRRT2 (11749266_a_at) / RFU SNX32 (11753110_a_at) / Fold change /veh SNX32 (11753110_a_at) / RFU CDHR5 (11726645_a_at) / Fold change /veh CDHR5 (11726645_a_at) / RFU RCAN1 (11760418_a_at) / Fold change /veh RCAN1 (11760418_a_at) / RFU FAM167A (11723789_a_at) / Fold change /veh FAM167A (11723789_a_at) / RFU FAM26E (11764081_at) / Fold change /veh FAM26E (11764081_at) / RFU ISYNA1 (11749810_s_at) / Fold change /veh ISYNA1 (11749810_s_at) / RFU ACY1 (11761880_at) / Fold change /veh ACY1 (11761880_at) / RFU 11764098_at / Fold change /veh 11764098_at / RFU SAMD14 (11745864_x_at) / Fold change /veh SAMD14 (11745864_x_at) / RFU NPB (11741838_a_at) / Fold change /veh NPB (11741838_a_at) / RFU TMPRSS6 (11731388_a_at) / Fold change /veh TMPRSS6 (11731388_a_at) / RFU KRTAP10-2 (11738614_at) / Fold change /veh KRTAP10-2 (11738614_at) / RFU ARHGAP8 /// PRR5-ARHGAP8 (11727945_x_at) / Fold change /veh ARHGAP8 /// PRR5-ARHGAP8 (11727945_x_at) / RFU KRTAP5-7 /// NADSYN1 (11734609_at) / Fold change /veh KRTAP5-7 /// NADSYN1 (11734609_at) / RFU RASL12 (11751679_a_at) / Fold change /veh RASL12 (11751679_a_at) / RFU CDKN2B (11736163_a_at) / Fold change /veh CDKN2B (11736163_a_at) / RFU PRF1 (11729649_at) / Fold change /veh PRF1 (11729649_at) / RFU, ZNF638 /// ZNF638-IT1 / Fold change vs veh, ZNF638 /// ZNF638-IT1 / RFU, PANK3 / Fold change vs veh, PANK3 / RFU, SH3YL1 / Fold change vs veh, SH3YL1 / RFU, ZEB2 / Fold change vs veh, ZEB2 / RFU, NRIP1 / Fold change vs veh, NRIP1 / RFU, PTTG1IP / Fold change vs veh, PTTG1IP / RFU, CAPN2 / Fold change vs veh, CAPN2 / RFU, MED14 / Fold change vs veh, MED14 / RFU, SNORA58 / Fold change vs veh, SNORA58 / RFU, C1orf63 / Fold change vs veh, C1orf63 / RFU, LRRFIP1 / Fold change vs veh, LRRFIP1 / RFU, NDUFAF7 / Fold change vs veh, NDUFAF7 / RFU, SLC12A2 / Fold change vs veh, SLC12A2 / RFU, IBTK / Fold change vs veh, IBTK / RFU, ESF1 / Fold change vs veh, ESF1 / Fold change vs veh, TMEM50B / RFU, TAOK1 / Fold change vs veh, TAOK1 / RFU, ACBD3 / Fold change vs veh, ACBD3 / RFU, TMA16 / Fold change vs veh, TMA16 / RFU, RWDD3 / Fold change vs veh, RWDD3 / RFU, BCAT1 / Fold change vs veh, BCAT1 / RFU, EDEM3 / Fold change vs veh, EDEM3 / RFU, TMEM33 / Fold change vs veh, TMEM33 / RFU, WDR75 / Fold change vs veh, WDR75 / RFU, AHCTF1 / Fold change vs veh, AHCTF1 / RFU, TFRC / Fold change vs veh, TFRC / RFU, ZDHHC17 / Fold change vs veh, ZDHHC17 / RFU, NOM1 / Fold change vs veh, NOM1 / RFU, ARL8B / Fold change vs veh, ARL8B / RFU, ZBTB11 / Fold change vs veh, ZBTB11 / RFU, TAMM41 / Fold change vs veh, TAMM41 / RFU, KIAA1704 /// LOC100996395 / Fold change vs veh, KIAA1704 /// LOC100996395 / RFU, ING1 / Fold change vs veh, ING1 / RFU, TRMT61B / Fold change vs veh, TRMT61B / RFU, FUBP3 / Fold change vs veh, FUBP3 / RFU, TP53 / Fold change vs veh, TP53 / RFU, TNKS2 / Fold change vs veh, TNKS2 / RFU, ZFP14 / Fold change vs veh, ZFP14 / RFU, ACTR2 / Fold change vs veh, ACTR2 / RFU, PPP3R1 / Fold change vs veh, PPP3R1 / RFU, PIK3R1 / Fold change vs veh, PIK3R1 / RFU, HNRNPA1 / Fold change vs veh, HNRNPA1 / RFU, RNF170 / Fold change vs veh, RNF170 / RFU, ZNF28 / Fold change vs veh, ZNF28 / RFU, RNGTT / Fold change vs veh, RNGTT / RFU, OGT / Fold change vs veh, OGT / RFU, BRD1 / Fold change vs veh, BRD1 / RFU, MARS / Fold change vs veh, MARS / RFU, ZNF655 / Fold change vs veh, ZNF655 / RFU, FAHD1 / Fold change vs veh, FAHD1 / RFU, BDP1 / Fold change vs veh, BDP1 / RFU, LRRCC1 / Fold change vs veh, LRRCC1 / RFU, ARID1A / Fold change vs veh, ARID1A / RFU, ZNF146 / Fold change vs veh, ZNF146 / RFU, ZNF330 / Fold change vs veh, ZNF330 / RFU, GPN3 / Fold change vs veh, GPN3 / RFU, C9orf123 / Fold change vs veh, C9orf123 / RFU, N4BP2L2 / Fold change vs veh, N4BP2L2 / RFU, ARFIP1 / Fold change vs veh, ARFIP1 / RFU, FAM179B / Fold change vs veh, FAM179B / RFU, BCL10 / Fold change vs veh, BCL10 / RFU, UHRF1BP1L / Fold change vs veh, UHRF1BP1L / RFU, BET1 / Fold change vs veh, BET1 / RFU, CNOT2 / Fold change vs veh, CNOT2 / RFU, ZNF268 / Fold change vs veh, ZNF268 / Fold change vs veh, ZNF507 / RFU, DGCR2 / Fold change vs veh, DGCR2 / RFU, WDSUB1 / Fold change vs veh, WDSUB1 / Fold change vs veh, HSP90B1 /// MIR3652 / RFU, ADSS / Fold change vs veh, ADSS / RFU, GK / Fold change vs veh, GK / RFU, ZNF148 / Fold change vs veh, ZNF148 / RFU, TAF9 / Fold change vs veh, TAF9 / RFU, SLC1A5 / Fold change vs veh, SLC1A5 / RFU, SLMO2 / Fold change vs veh, SLMO2 / RFU, ABCC4 / Fold change vs veh, ABCC4 / RFU, LOC101060439 /// RAP1B / Fold change vs veh, LOC101060439 /// RAP1B / RFU, RFX7 / Fold change vs veh, RFX7 / RFU, GTPBP10 / Fold change vs veh, GTPBP10 / RFU, CNEP1R1 / Fold change vs veh, CNEP1R1 / RFU, BIVM-ERCC5 /// ERCC5 / Fold change vs veh, BIVM-ERCC5 /// ERCC5 / RFU, ILF3 / Fold change vs veh, ILF3 / RFU 11762660_at / Fold change /veh 11762660_at / RFU VCAN (11757783_s_at) / Fold change /veh VCAN (11757783_s_at) / RFU DDX43 (11728927_at) / Fold change /veh DDX43 (11728927_at) / RFU KRT8 (11758188_x_at) / Fold change /veh KRT8 (11758188_x_at) / RFU NKD1 (11759106_at) / Fold change /veh NKD1 (11759106_at) / RFU SRD5A1 (11742802_a_at) / Fold change /veh SRD5A1 (11742802_a_at) / RFU TPSAB1 /// TPSB2 (11721975_s_at) / Fold change /veh TPSAB1 /// TPSB2 (11721975_s_at) / RFU GSTM3 (11746129_a_at) / Fold change /veh GSTM3 (11746129_a_at) / RFU IL23R (11737362_x_at) / Fold change /veh IL23R (11737362_x_at) / RFU TMEM51 (11727254_a_at) / Fold change /veh TMEM51 (11727254_a_at) / RFU PIWIL2 (11732686_x_at) / Fold change /veh PIWIL2 (11732686_x_at) / RFU ORM1 (11744905_x_at) / Fold change /veh ORM1 (11744905_x_at) / RFU CCDC152 (11743942_at) / Fold change /veh CCDC152 (11743942_at) / RFU ECM1 (11717891_a_at) / Fold change /veh ECM1 (11717891_a_at) / RFU IL23R (11748794_a_at) / Fold change /veh IL23R (11748794_a_at) / RFU TNFAIP8L3 (11732012_x_at) / Fold change /veh TNFAIP8L3 (11732012_x_at) / RFU MBOAT4 (11741988_at) / Fold change /veh MBOAT4 (11741988_at) / RFU 11764193_at / Fold change /veh 11764193_at / RFU TMEM53 (11763286_at) / Fold change /veh TMEM53 (11763286_at) / RFU MAGEB2 (11727129_at) / Fold change /veh MAGEB2 (11727129_at) / RFU TMEM200A (11744735_a_at) / Fold change /veh TMEM200A (11744735_a_at) / RFU CCDC152 (11751479_a_at) / Fold change /veh CCDC152 (11751479_a_at) / RFU FAM211A (11726209_a_at) / Fold change /veh FAM211A (11726209_a_at) / RFU RGS16 (11746705_a_at) / Fold change /veh RGS16 (11746705_a_at) / RFU VCAN (11755009_s_at) / Fold change /veh VCAN (11755009_s_at) / RFU RHOB (11743442_s_at) / Fold change /veh RHOB (11743442_s_at) / RFU RGS16 (11720943_a_at) / Fold change /veh RGS16 (11720943_a_at) / RFU RGS16 (11720944_at) / Fold change /veh RGS16 (11720944_at) / RFU, VPS4B / Fold change vs veh, VPS4B / RFU, CREB1 / Fold change vs veh, CREB1 / RFU, DNAJC13 / Fold change vs veh, DNAJC13 / RFU, GNAQ / Fold change vs veh, GNAQ / RFU, CDK5R1 / Fold change vs veh, CDK5R1 / RFU, ZRANB3 / Fold change vs veh, ZRANB3 / RFU, CUL4A / Fold change vs veh, CUL4A / RFU, CCNY / Fold change vs veh, CCNY / RFU, UFL1 / Fold change vs veh, UFL1 / RFU, COG3 / Fold change vs veh, COG3 / RFU, DIAPH2 / Fold change vs veh, DIAPH2 / RFU, SKA2 / Fold change vs veh, SKA2 / RFU, AFF3 / Fold change vs veh, AFF3 / RFU, LMF1 / Fold change vs veh, LMF1 / RFU, IPO11 / Fold change vs veh, IPO11 / RFU, DFFB / Fold change vs veh, DFFB / RFU, FOXP1 / Fold change vs veh, FOXP1 / RFU, CARD8 / Fold change vs veh, CARD8 / RFU, STRN3 / Fold change vs veh, STRN3 / RFU, ADK / Fold change vs veh, ADK / RFU, RASSF2 / Fold change vs veh, RASSF2 / RFU, WIPF1 / Fold change vs veh, WIPF1 / RFU, LARP1B / Fold change vs veh, LARP1B / RFU, RASA1 / Fold change vs veh, RASA1 / RFU, RB1 / Fold change vs veh, RB1 / RFU, PPFIA1 / Fold change vs veh, PPFIA1 / RFU, MAT2A / Fold change vs veh, MAT2A / RFU, CCT5 / Fold change vs veh, CCT5 / RFU, WDR92 / Fold change vs veh, WDR92 / RFU, CUX1 / Fold change vs veh, CUX1 / RFU, TTC7A / Fold change vs veh, TTC7A / RFU, TMEM135 / Fold change vs veh, TMEM135 / RFU, DEPTOR / Fold change vs veh, DEPTOR / RFU, CPM / Fold change vs veh, CPM / RFU, DNAJB6 / Fold change vs veh, DNAJB6 / RFU, CACNA2D3 / Fold change vs veh, CACNA2D3 / RFU, DTX4 / Fold change vs veh, DTX4 / RFU, TFCP2 / Fold change vs veh, TFCP2 / RFU, GMCL1 /// GMCL1P1 / Fold change vs veh, GMCL1 /// GMCL1P1 / RFU, AEBP2 / Fold change vs veh, AEBP2 / RFU, SNHG1 /// SNORD22 /// SNORD25 /// SNORD26 /// SNORD27 /// SNORD28 /// SNORD29 /// SNORD31 / Fold change vs veh, SNHG1 /// SNORD22 /// SNORD25 /// SNORD26 /// SNORD27 /// SNORD28 /// SNORD29 /// SNORD31 / Fold change (Aza/veh), C12orf56 (ProbeSet 11735607_a_at) / Fold change (ACY-1035/veh), C12orf56 (ProbeSet 11735607_a_at) / Fold change (Aza/veh), FGFR1OP (ProbeSet 11751329_s_at) / Fold change (ACY-1035/veh), FGFR1OP (ProbeSet 11751329_s_at) / Fold change (Aza/veh), VPS36 (ProbeSet 11739960_a_at) / Fold change (ACY-1035/veh), VPS36 (ProbeSet 11739960_a_at) / RFU SYPL1 (11715823_x_at) / Fold change /veh SYPL1 (11715823_x_at) / RFU IGFBP7 (11715501_s_at) / Fold change /veh IGFBP7 (11715501_s_at) / RFU REEP3 (11722064_at) / Fold change /veh REEP3 (11722064_at) / RFU IGLL1 (11728026_x_at) / Fold change /veh IGLL1 (11728026_x_at): dose or concentration left out as unconfirmed
Conditions: MV-4-11 cells, 48 hours

Nc1ccc(-c2cccs2)cc1NC(=O)c1ccc2c(c1)cc(C1CC1)n2CCN1CCOCC1 [ACY-1035]
RFU SYPL1 (11715823_x_at): 565.47 RFU
